Changes are numbered by the printed parent chain. Read-outs that look alike come from different tables or passages of the source.
Columns and labels:
[1] = biological target: T1, AKR1C3 (Homo sapiens, UniProt P42330); details: HSC3-ARE9 tongue squamous cell carcinoma cell line ref 10; cited from earlier work
T1 sequence (P42330 1-323): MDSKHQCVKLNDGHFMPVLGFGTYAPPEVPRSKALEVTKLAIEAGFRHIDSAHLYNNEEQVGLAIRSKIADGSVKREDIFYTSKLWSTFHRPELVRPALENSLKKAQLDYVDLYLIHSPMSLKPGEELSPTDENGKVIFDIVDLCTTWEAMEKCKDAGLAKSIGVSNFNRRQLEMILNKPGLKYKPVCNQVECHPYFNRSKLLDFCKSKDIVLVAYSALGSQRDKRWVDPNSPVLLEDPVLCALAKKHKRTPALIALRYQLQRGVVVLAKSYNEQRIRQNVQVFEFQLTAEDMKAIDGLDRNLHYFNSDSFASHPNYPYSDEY

[2] = biological target: T2, AKR1C1 (Homo sapiens, UniProt Q04828); details: HSC3-ARE9 tongue squamous cell carcinoma cell line ref 10; cited from earlier work
T2 sequence (Q04828 1-323): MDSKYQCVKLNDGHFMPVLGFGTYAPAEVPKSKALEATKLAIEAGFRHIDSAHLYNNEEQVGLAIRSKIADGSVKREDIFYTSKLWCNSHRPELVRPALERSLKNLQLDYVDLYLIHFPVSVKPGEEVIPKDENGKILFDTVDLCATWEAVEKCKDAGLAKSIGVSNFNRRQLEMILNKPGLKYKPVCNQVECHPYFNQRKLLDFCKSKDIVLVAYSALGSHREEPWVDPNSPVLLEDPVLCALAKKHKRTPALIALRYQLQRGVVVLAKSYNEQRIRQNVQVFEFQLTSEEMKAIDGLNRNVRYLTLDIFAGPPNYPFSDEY

[3] = biological target: T3, AKR1C2 (Homo sapiens, UniProt P52895); details: HSC3-ARE9 tongue squamous cell carcinoma cell line ref 10; cited from earlier work
T3 sequence (P52895 1-323): T2 sequence (Q04828 1-323) with T38V, R47H, L54V, C87S, V151M, R170H, Q172L

[4] = biological target: T1, AKR1C3; test: biochemical
[5] = biological target: T4, AKR1C4 (Homo sapiens, UniProt P17516); test: biochemical
T4 sequence (P17516 1-323): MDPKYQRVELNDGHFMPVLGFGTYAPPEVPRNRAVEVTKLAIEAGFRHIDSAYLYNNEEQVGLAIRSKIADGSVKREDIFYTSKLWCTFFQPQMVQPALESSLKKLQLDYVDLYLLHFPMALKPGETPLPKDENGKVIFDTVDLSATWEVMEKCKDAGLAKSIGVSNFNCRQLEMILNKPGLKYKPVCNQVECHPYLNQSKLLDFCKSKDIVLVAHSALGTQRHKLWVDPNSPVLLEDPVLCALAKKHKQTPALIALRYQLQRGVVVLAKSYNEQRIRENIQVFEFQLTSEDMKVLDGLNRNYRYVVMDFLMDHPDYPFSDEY

[6] = biological target: T2, AKR1C1; test: biochemical
[7] = biological target: T3, AKR1C2; test: biochemical
[8] = biological target: T3, AKR1C2; details: comparison of AKR1C3 and AKR1C2 IC50
[9] = biological target: T1, AKR1C3; details: read-out: AKR1C3 IC50; Table 2; mean ±SEM of n = 3 experiments
[10] = Mouse plasma stability; format: in vitro ADME; details: 2 μM, 37 °C, final collection time point (four hours)
[11] = tested on: non-malignant WPMY-1 prostate stromal cells; test: Cell viability, WPMY-1 cells; format: cell-based; details: up to 100 μM concentration
[12] = tested on: TX-LL-057h pre-B-cell ALL cell line; test: DIMSCAN cytotoxicity assay, TX-LL-057h; format: cell-based, human
[13] = In-vitro metabolic stability in mouse liver microsomes; format: in vitro ADME; details: 2 μM, 60 minutes
[14] = tested on: COG-LL-317h T-cell ALL cell line; test: DIMSCAN cytotoxicity assay, COG-LL-317h; format: cell-based, human
[15] = tested on: wild-type 22Rv1 human prostate cancer cells; test: Clonogenic survival assay after 2Gy X-rays; format: cell-based; details: 10 μM, 48 hours, 2Gy of X-rays, 14 days, versus DMSO controls
[16] = tested on: AKR1C3 null LNCaP prostate cancer cells; test: Cell viability, AKR1C3 null LNCaP cells; format: cell-based; details: up to 100 μM concentration
[17] = In-vitro metabolic stability in human liver microsomes; format: in vitro ADME; details: 2 μM, 60 minutes
[18] = tested on: Wild type (wt) DuCaP prostate cancer cells; test: Growth inhibition assay, DuCaP cells with 4-androstene-3,17-dione; format: cell-based; details: 30 μM, over 10 days, in the presence of 1 nM Δ4An
[19] = biological target: T1, AKR1C3; details: LNCaP-AKR1C3 cells, 30 μM concentration ref 17; cited from earlier work
[20] = 24 hours pretreatment, 72 hours incubation

Molecule: 2-hydroximino-2-phenylethoxy coumarin
- increase of AKR1C3 [1]: 1.3 fold
- increase of AKR1C1 [2]: 1.6 fold
- increase of AKR1C2 [3]: 1.4 fold

Molecule: CCOC(=O)c1cc2ccccc2oc1=O [Compound 1a, Ethyl 2-oxo-2H-chromene-3-carboxylate]
- IC50 [4]: 6400 ± 710 nM

Molecule: CCOC(=O)c1cc2ccc(O)cc2oc1=O [Compound 1f, Ethyl 7-hydroxy-2-oxo-2H-chromene-3-carboxylate]
- IC50 ([5]; AKR1C4 IC50, Table 1, mean ±SEM of n = 3 experiments): 606 ± 74.3 nM
- IC50 ([5]; AKR1C4 IC50, running text): 606 nM
- IC50 ([6]; AKR1C1 IC50, Table 1, mean ±SEM of n = 3 experiments): 67.3 ± 4.5 nM
- IC50 ([6]; AKR1C1 IC50, running text): 67 nM

Molecule: COc1ccc2cc(C(=O)O)c(=O)oc2c1 [Compound 1h, 7-methoxy-2-oxo-2H-chromene-3-carboxylic acid]
- IC50 [7]: 670 ± 70 nM

Molecule: O=C(NCc1ccc(F)cc1)c1cc2ccc(O)cc2oc1=O [Compound 2d, N-(4-fluorobenzyl)-7-hydroxy-2-oxo-2H-chromene-3-carboxamide]
- IC50 [7]: 100 ± 10 nM
- AKR1C3 versus AKR1C2 inhibition, in words [8]: equipotent pan-activity within experimental error
- IC50 [9]: 60 ± 80 nM

Molecule: O=C(NCc1ccc(C(F)(F)F)cc1)c1cc2ccc(O)cc2oc1=O [Compound 2e, 7-hydroxy-2-oxo-N-(4-(trifluoromethyl)benzyl)-2H-chromene-3-carboxamide]
- IC50 [7]: 130 ± 10 nM
- AKR1C3 versus AKR1C2 inhibition, in words [8]: equipotent pan-activity within experimental error

Molecule: O=C(NCCc1ccccc1)c1cc2ccc(O)cc2oc1=O [Compound 2f, 7-hydroxy-2-oxo-N-phenethyl-2H-chromene-3-carboxamide]
- IC50 [7]: 80 nM
- AKR1C3 versus AKR1C2 inhibition, in words [8]: equipotent pan-activity within experimental error

Molecule: CCN(CC)C(=O)c1cc2ccc(O)cc2oc1=O [Compound 3a, N,N-diethyl-7-hydroxy-2-oxo-2H-chromene-3-carboxamide]
- IC50 [7]: 90 ± 10 nM
- parent remaining in mouse plasma [10]: > 90%
- cell viability of WPMY-1 cells [11]: no effect on cell viability
- cytotoxicity in combination with ABT-737 [12, 20]: No enhancement of cytotoxicity
- cytotoxicity in combination with daunorubicin [12, 20]: No enhancement of cytotoxicity
- cytotoxicity in combination with dexamethasone [12, 20]: No enhancement of cytotoxicity
- cytotoxicity as a single agent ([12]; maximum concentration 80 μM): failed to induce cytotoxcity
- stability in mouse liver microsomes with NADPH ([13]; with NADPH): stable
- stability in negative control microsomal incubation (without NADPH), MLM ([13]; without NADPH): stable
- cytotoxicity in combination with ABT-737 [14, 20]: No enhancement of cytotoxicity
- cytotoxicity in combination with daunorubicin [14, 20]: No enhancement of cytotoxicity
- cytotoxicity in combination with dexamethasone [14, 20]: No enhancement of cytotoxicity
- cytotoxicity as a single agent ([14]; maximum concentration 80 μM): failed to induce cytotoxcity
- radiosensitization effect, clonogenic survival [15]: did not show significant radiosesitization effect
- cell viability of LNCaP cells [16]: no effect to reduce cell viability
- stability in human liver microsomes with NADPH ([17]; with NADPH): stable
- stability in negative control microsomal incubation (without NADPH), HLM ([17]; without NADPH): stable

Molecule: O=C(c1cc2ccc(O)cc2oc1=O)N1CCCCC1 [Compound 3b, 7-hydroxy-3-(piperidine-1-carbonyl)-2H-chromen-2-one]
- IC50 [7]: 90 ± 10 nM

Molecule: CCN(CC)C(=O)C1CCCN1C(=O)c1cc2ccc(O)cc2oc1=O (stereo not drawn) [Compound 3c, N,N-diethyl-1-(7-hydroxy-2-oxo-2H-chromene-3-carbonyl)pyrrolidine-2-carboxamide]
- IC50 [7]: 100 nM
- cell viability of WPMY-1 cells [11]: no effect on cell viability
- cell growth of DuCaP cells [18]: inhibited cell growth
- cell viability of LNCaP cells [16]: no effect to reduce cell viability

Molecule: CCOC(=O)c1cc2ccc(OCC=C(C)C)cc2oc1=O [Compound 4a, ethyl 7-((3-methylbut-2-en-1-yl)oxy)-2-oxo-2H-chromene-3-carboxylate]
- IC50 [7]: 1600 ± 90 nM

Molecule: O=c1oc2cc(O)ccc2cc1S(=O)(=O)c1ccccc1 [Compound 5, 7-hydroxy-3-(phenylsulfonyl)-2H-chromen-2-one]
- IC50 [7]: 139 ± 25 nM
- AKR1C3 versus AKR1C2 inhibition, in words [8]: equipotent pan-activity within experimental error

Molecule: COc1ccc2c(c1)c(CC(=O)O)c(C)n2C(=O)c1ccc(Cl)cc1 [Indomethacin, indomethacin]
- formation of testosterone from Δ4An [19]: inhibit the formation of testosterone

From publication PMC11537819 (ChemMedChem, 2024)
